{
  "source": "paper PMC7265341",
  "about": "“Quantifying CDK inhibitor selectivity in live cells” (Nature Communications, 2020)",
  "key": {"CDK10/Cyclin L2": {"target": "CDK10/Cyclin L2 (Homo sapiens, UniProt Q15131)", "sequence (Q15131 whole entry)": "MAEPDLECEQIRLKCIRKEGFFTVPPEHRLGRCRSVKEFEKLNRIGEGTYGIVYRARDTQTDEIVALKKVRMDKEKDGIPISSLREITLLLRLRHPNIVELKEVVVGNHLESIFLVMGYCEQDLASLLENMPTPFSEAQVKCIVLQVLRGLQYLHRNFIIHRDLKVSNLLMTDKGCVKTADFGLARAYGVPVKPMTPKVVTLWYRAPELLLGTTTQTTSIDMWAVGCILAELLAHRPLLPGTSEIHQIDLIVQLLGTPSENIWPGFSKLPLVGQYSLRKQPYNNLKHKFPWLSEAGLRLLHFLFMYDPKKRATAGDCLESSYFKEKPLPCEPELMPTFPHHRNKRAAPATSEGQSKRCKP", "assay": "NanoBRET live-cell target engagement, CDK10-NanoLuc/Cyclin L2 in HEK-293", "conditions": "10µM"}, "CDK20/Cyclin H": {"target": "CDK20/Cyclin H (Homo sapiens, UniProt Q8IZL9)", "assay": "NanoBRET live-cell target engagement, NanoLuc-CDK20/Cyclin H in HEK-293", "assay_type": "binding", "conditions": "CDK20/H, 10µM"}, "CDK3/Cyclin E1": {"target": "CDK3/Cyclin E1 (Homo sapiens, UniProt Q00526)", "sequence (Q00526 whole entry)": "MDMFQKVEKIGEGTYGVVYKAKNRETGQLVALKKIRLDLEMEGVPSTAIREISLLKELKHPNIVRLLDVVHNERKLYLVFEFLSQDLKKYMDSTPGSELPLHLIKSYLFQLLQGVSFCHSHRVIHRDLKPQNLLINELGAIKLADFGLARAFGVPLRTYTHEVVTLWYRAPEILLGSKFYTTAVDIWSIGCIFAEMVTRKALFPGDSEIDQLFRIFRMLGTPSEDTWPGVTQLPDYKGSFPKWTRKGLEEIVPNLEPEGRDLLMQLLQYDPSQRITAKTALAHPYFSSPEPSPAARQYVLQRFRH", "sequence (P24864 whole entry partner)": "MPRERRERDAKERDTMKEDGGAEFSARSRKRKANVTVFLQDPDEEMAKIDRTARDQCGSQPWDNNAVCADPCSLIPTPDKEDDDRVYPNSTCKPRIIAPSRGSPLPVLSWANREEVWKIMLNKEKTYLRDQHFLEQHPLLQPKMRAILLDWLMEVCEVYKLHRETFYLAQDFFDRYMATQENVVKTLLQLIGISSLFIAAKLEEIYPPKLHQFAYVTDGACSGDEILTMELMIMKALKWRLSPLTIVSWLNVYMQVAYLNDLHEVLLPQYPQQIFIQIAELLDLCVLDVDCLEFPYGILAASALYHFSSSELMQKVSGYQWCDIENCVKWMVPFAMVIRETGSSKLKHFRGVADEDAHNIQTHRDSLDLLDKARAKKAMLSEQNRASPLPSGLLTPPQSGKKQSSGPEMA", "assay": "NanoBRET live-cell target engagement, CDK3-NanoLuc/Cyclin E1 in HEK-293", "assay_type": "binding", "conditions": "CDK3/E1, 10µM"}, "CDK6/Cyclin D1": {"target": "CDK6/Cyclin D1 (Homo sapiens, UniProt Q00534)", "assay": "NanoBRET live-cell target engagement, NanoLuc-CDK6/Cyclin D1 in HEK-293", "assay_type": "binding", "conditions": "CDK6/D1, 10µM"}, "CDK11A/Cyclin L2": {"target": "T1, CDK11A/Cyclin L2 (Homo sapiens, UniProt Q9UQ88)", "T1 sequence (Q9UQ88 1-783)": "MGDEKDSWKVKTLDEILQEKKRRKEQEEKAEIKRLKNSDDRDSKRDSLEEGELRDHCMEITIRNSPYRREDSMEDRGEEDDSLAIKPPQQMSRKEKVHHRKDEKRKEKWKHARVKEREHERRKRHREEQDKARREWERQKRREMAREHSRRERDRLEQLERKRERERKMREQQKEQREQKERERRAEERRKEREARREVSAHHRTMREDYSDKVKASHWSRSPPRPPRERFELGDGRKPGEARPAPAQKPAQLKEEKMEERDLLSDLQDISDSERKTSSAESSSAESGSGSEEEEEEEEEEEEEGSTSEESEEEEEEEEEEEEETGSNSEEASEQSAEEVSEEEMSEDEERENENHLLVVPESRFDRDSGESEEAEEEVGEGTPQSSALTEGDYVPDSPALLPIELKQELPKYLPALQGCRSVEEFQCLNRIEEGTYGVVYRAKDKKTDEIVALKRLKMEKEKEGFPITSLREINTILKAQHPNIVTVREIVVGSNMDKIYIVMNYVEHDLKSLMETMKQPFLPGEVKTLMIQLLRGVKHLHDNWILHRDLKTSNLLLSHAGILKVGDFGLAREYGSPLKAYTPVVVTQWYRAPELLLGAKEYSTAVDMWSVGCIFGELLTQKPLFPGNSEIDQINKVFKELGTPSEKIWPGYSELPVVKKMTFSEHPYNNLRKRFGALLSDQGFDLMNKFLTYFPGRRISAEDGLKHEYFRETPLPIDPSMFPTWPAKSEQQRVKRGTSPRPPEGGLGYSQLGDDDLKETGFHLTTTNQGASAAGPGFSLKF", "assay": "NanoBRET live-cell target engagement, CDK11A-NanoLuc/Cyclin L2 in HEK-293", "assay_type": "binding", "conditions": "CDK11a/L2, 10µM"}, "CDK19/Cyclin C": {"target": "CDK19/Cyclin C (Homo sapiens, UniProt Q9BWU1)", "sequence (Q9BWU1 whole entry)": "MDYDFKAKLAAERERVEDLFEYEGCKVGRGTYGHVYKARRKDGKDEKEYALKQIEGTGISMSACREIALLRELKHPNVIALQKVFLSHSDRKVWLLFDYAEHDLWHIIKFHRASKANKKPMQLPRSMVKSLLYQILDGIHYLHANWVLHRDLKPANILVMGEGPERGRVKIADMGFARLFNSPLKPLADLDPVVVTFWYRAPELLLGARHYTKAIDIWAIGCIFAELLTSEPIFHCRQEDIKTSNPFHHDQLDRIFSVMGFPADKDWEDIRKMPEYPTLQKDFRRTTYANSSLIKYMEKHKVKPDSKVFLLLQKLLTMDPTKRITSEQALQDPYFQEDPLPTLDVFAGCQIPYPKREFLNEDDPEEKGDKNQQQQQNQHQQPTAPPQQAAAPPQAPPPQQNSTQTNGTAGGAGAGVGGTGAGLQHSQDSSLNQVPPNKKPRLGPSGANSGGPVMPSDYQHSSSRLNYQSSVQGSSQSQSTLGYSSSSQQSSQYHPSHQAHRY", "sequence (P24863 whole entry partner)": "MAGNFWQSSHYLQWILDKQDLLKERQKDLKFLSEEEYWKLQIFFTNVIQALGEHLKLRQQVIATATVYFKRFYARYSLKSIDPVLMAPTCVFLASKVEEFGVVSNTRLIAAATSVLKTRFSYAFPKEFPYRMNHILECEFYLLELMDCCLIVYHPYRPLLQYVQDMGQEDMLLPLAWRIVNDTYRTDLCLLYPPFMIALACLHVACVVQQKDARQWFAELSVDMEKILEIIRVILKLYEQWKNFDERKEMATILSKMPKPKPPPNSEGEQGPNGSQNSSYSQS", "assay": "NanoBRET live-cell target engagement, NanoLuc-CDK19/Cyclin C in HEK-293"}, "CDK4/Cyclin D1": {"target": "CDK4/Cyclin D1 (Homo sapiens, UniProt P11802)", "assay": "NanoBRET live-cell target engagement, NanoLuc-CDK4/Cyclin D1 in HEK-293", "assay_type": "binding", "conditions": "CDK4/D1, 10µM"}, "CDK9/Cyclin K": {"target": "CDK9/Cyclin K (Homo sapiens, UniProt P50750)", "assay": "NanoBRET live-cell target engagement, NanoLuc-CDK9/Cyclin K in HEK-293", "assay_type": "binding", "conditions": "CDK9/K, 10µM"}, "CDK11B/Cyclin L2": {"target": "CDK11B/Cyclin L2 (Homo sapiens, UniProt P21127)", "sequence (P21127 1-782 isoform P21127-2)": "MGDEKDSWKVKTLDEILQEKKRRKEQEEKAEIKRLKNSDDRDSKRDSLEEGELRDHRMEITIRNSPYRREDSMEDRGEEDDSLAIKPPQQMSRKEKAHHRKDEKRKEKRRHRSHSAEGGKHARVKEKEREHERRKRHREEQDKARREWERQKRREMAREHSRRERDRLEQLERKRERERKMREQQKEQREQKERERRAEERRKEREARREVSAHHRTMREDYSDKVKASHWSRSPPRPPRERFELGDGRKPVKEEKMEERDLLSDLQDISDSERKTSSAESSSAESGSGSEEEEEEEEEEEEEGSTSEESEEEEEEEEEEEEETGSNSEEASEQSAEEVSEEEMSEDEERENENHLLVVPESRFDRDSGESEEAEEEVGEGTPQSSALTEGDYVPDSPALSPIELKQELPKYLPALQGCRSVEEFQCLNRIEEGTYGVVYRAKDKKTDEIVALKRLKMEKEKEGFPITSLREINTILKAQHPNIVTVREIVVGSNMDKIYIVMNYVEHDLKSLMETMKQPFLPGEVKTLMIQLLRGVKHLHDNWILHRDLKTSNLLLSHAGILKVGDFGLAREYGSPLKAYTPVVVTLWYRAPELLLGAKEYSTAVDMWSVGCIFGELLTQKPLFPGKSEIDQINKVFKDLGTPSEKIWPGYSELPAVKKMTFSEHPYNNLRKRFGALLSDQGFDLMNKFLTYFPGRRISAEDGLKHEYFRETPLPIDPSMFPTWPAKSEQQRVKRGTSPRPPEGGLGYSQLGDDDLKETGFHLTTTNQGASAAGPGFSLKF", "assay": "NanoBRET live-cell target engagement, CDK11B-NanoLuc/Cyclin L2 in HEK-293", "assay_type": "binding", "conditions": "CDK11b/L2, 10µM"}, "CDK2/Cyclin E1": {"target": "CDK2/Cyclin E1 (Homo sapiens, UniProt P24941)", "assay": "NanoBRET live-cell target engagement, CDK2-NanoLuc/Cyclin E1 in HEK-293", "assay_type": "binding", "conditions": "CDK2/E1, 10µM"}, "CDK8/Cyclin C": {"target": "CDK8/Cyclin C (Homo sapiens, UniProt P49336)", "sequence (P49336 whole entry)": "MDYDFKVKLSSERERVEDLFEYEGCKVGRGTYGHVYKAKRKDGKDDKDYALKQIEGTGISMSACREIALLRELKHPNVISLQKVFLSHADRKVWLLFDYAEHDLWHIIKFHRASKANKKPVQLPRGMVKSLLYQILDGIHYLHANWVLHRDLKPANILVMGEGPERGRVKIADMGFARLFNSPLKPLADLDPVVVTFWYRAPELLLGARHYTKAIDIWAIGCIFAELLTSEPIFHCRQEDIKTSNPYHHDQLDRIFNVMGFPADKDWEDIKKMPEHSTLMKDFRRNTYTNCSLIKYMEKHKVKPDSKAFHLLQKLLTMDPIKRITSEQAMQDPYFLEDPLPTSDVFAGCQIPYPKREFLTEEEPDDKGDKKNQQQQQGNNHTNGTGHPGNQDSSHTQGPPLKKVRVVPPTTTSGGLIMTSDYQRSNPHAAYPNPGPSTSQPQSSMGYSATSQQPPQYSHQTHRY", "sequence (P24863 whole entry partner)": "as the sequence (P24863 whole entry partner) above", "assay": "NanoBRET live-cell target engagement, NanoLuc-CDK8/Cyclin C in HEK-293", "assay_type": "binding"}, "CDK1/Cyclin E1": {"target": "CDK1/Cyclin E1 (Homo sapiens, UniProt P06493)", "sequence (P06493 whole entry)": "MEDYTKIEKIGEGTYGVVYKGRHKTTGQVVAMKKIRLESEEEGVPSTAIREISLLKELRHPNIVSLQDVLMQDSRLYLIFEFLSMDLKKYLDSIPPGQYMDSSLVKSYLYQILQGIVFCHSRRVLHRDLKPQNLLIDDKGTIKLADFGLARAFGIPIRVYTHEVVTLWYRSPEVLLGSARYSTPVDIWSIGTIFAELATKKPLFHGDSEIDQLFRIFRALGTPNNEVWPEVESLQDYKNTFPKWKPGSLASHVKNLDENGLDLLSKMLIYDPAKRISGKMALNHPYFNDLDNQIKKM", "sequence (P24864 whole entry partner)": "as the sequence (P24864 whole entry partner) above", "assay": "NanoBRET live-cell target engagement, CDK1-NanoLuc/Cyclin E1 in HEK-293", "assay_type": "binding", "conditions": "CDK1/E1, 10µM"}, "CDK7": {"target": "CDK7 (Homo sapiens, UniProt P50613)", "sequence (P50613 whole entry)": "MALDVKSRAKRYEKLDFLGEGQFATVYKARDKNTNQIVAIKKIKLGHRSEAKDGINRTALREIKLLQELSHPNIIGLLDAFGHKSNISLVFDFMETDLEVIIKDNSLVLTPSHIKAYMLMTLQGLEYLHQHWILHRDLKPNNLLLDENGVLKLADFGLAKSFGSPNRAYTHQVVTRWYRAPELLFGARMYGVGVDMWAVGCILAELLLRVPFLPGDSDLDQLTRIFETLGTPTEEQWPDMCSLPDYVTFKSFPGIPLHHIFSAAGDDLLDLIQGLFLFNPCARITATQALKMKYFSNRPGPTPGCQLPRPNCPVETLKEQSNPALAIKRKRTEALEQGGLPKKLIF", "assay": "NanoBRET live-cell target engagement, NanoLuc-CDK7 in HEK-293", "assay_type": "binding", "conditions": "CDK7"}, "CDK5/CDK5R1": {"target": "CDK5/CDK5R1 (Homo sapiens, UniProt Q00535)", "sequence (Q00535 whole entry)": "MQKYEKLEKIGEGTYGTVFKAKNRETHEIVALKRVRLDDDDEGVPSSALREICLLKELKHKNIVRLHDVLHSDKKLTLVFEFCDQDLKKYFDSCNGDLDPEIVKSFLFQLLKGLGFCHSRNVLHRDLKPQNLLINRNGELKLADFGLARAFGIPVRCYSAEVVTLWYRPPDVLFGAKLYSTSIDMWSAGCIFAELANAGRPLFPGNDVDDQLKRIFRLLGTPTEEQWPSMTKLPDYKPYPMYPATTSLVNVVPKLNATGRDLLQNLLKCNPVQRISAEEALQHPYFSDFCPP", "sequence (Q15078 whole entry partner)": "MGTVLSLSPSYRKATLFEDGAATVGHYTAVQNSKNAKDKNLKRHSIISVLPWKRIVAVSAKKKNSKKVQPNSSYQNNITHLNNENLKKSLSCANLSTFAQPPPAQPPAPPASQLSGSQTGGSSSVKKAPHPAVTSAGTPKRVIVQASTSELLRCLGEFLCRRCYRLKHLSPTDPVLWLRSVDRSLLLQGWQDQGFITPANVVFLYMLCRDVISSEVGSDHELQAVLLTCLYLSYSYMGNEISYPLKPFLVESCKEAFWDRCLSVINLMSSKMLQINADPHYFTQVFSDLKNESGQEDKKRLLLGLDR", "assay": "NanoBRET live-cell target engagement, CDK5-NanoLuc/CDK5R1 in HEK-293", "assay_type": "binding", "conditions": "CDK5/CDK5R1, 10µM"}, "[1]": {"conditions": "read-out: Inhibition at 10µM (%) Replicate 1"}, "[2]": {"conditions": "read-out: Inhibition at 10µM (%) Replicate 2"}, "[3]": {"conditions": "average of replicates, read-out: Inhibition at 10µM (%) Average"}},
  "note": "Where two headings read alike, the source gives them in different places.",
  "data": [
    {"smiles": "CCN1CCN(Cc2ccc(NC(=O)Nc3ccc(Oc4cc(NC)ncn4)cc3)cc2C(F)(F)F)CC1", "note": "[AST-487]", "values": [
      {"measurement": "inhibition at 10 µM", "setting": "CDK10/Cyclin L2; read-out: Inhibition at 10µM (%) Average, CDK10/L2, average of replicates", "value": 84.1, "unit": "%"},
      {"measurement": "inhibition at 10 µM", "setting": "CDK10/Cyclin L2; read-out: Inhibition at 10µM (%) Replicate 1, CDK10/L2", "value": 74.4, "unit": "%"},
      {"measurement": "inhibition at 10 µM", "setting": "CDK10/Cyclin L2; read-out: Inhibition at 10µM (%) Replicate 2, CDK10/L2", "value": 93.8, "unit": "%"},
      {"measurement": "inhibition at 10 µM", "setting": "CDK20/Cyclin H; [1]", "value": 38.4, "unit": "%"},
      {"measurement": "inhibition at 10 µM", "setting": "CDK20/Cyclin H; [2]", "value": 80.6, "unit": "%"},
      {"measurement": "inhibition at 10 µM", "setting": "CDK3/Cyclin E1; [3]", "value": 71.7, "unit": "%"},
      {"measurement": "inhibition at 10 µM", "setting": "CDK3/Cyclin E1; [1]", "value": 58, "unit": "%"},
      {"measurement": "inhibition at 10 µM", "setting": "CDK3/Cyclin E1; [2]", "value": 85.5, "unit": "%"},
      {"measurement": "inhibition at 10 µM", "setting": "CDK6/Cyclin D1; [3]", "value": 50.9, "unit": "%"},
      {"measurement": "inhibition at 10 µM", "setting": "CDK6/Cyclin D1; [1]", "value": 15.7, "unit": "%"},
      {"measurement": "inhibition at 10 µM", "setting": "CDK6/Cyclin D1; [2]", "value": 86.2, "unit": "%"},
      {"measurement": "inhibition at 10 µM", "setting": "CDK11A/Cyclin L2; [3]", "value": 49, "unit": "%"},
      {"measurement": "inhibition at 10 µM", "setting": "CDK11A/Cyclin L2; [1]", "value": 22.5, "unit": "%"},
      {"measurement": "inhibition at 10 µM", "setting": "CDK11A/Cyclin L2; [2]", "value": 75.4, "unit": "%"},
      {"measurement": "IC50", "setting": "CDK19/Cyclin C; IC50 (nM) Average*, CDK19/Y, n=3 average ± SEM, n=2 average to 2 significant figures", "value": 25, "unit": "nM"},
      {"measurement": "IC50", "setting": "CDK19/Cyclin C; IC50 (nM) Replicate 1, CDK19/C", "value": 28, "unit": "nM"},
      {"measurement": "IC50", "setting": "CDK19/Cyclin C; IC50 (nM) Replicate 2, CDK19/C", "value": 22, "unit": "nM"},
      {"measurement": "IC50", "setting": "CDK19/Cyclin C; IC50, [Probe 1] 0.5 µM (plot: [Probe 3]), n=1", "value": 9.4, "unit": "nM"},
      {"measurement": "IC50", "setting": "CDK19/Cyclin C; IC50, [Probe 1] 1 µM (plot: [Probe 3]), n=1", "value": 10, "unit": "nM"},
      {"measurement": "inhibition at 10 µM", "setting": "CDK19/Cyclin C; read-out: Inhibition at 10µM (%) Average, CDK19/C, average of replicates", "value": 98.4, "unit": "%"},
      {"measurement": "inhibition at 10 µM", "setting": "CDK19/Cyclin C; read-out: Inhibition at 10µM (%) Replicate 1, CDK19/C", "value": 94.2, "unit": "%"},
      {"measurement": "inhibition at 10 µM", "setting": "CDK19/Cyclin C; read-out: Inhibition at 10µM (%) Replicate 2, CDK19/C", "value": 103, "unit": "%"},
      {"measurement": "inhibition at 10 µM", "setting": "CDK4/Cyclin D1; [3]", "value": 75.5, "unit": "%"},
      {"measurement": "inhibition at 10 µM", "setting": "CDK4/Cyclin D1; [1]", "value": 55.7, "unit": "%"},
      {"measurement": "inhibition at 10 µM", "setting": "CDK4/Cyclin D1; [2]", "value": 95.3, "unit": "%"},
      {"measurement": "inhibition at 10 µM", "setting": "CDK9/Cyclin K; [3]", "value": 83.3, "unit": "%"},
      {"measurement": "inhibition at 10 µM", "setting": "CDK9/Cyclin K; [1]", "value": 72.3, "unit": "%"},
      {"measurement": "inhibition at 10 µM", "setting": "CDK9/Cyclin K; [2]", "value": 94.4, "unit": "%"},
      {"measurement": "inhibition at 10 µM", "setting": "CDK11B/Cyclin L2; [3]", "value": 10.3, "unit": "%"},
      {"measurement": "inhibition at 10 µM", "setting": "CDK11B/Cyclin L2; [1]", "value": 10.9, "unit": "%"},
      {"measurement": "inhibition at 10 µM", "setting": "CDK11B/Cyclin L2; [2]", "value": 9.7, "unit": "%"},
      {"measurement": "inhibition at 10 µM", "setting": "CDK2/Cyclin E1; [3]", "value": 2.9, "unit": "%"},
      {"measurement": "inhibition at 10 µM", "setting": "CDK2/Cyclin E1; [1]", "value": -18.7, "unit": "%"},
      {"measurement": "inhibition at 10 µM", "setting": "CDK2/Cyclin E1; [2]", "value": 24.5, "unit": "%"},
      {"measurement": "inhibition at 10 µM", "setting": "CDK8/Cyclin C; CDK8/C, average of replicates, read-out: Inhibition at 10µM (%) Average", "value": 95.7, "unit": "%"},
      {"measurement": "inhibition at 10 µM", "setting": "CDK8/Cyclin C; CDK8/C, read-out: Inhibition at 10µM (%) Replicate 1", "value": 95.7, "unit": "%"},
      {"measurement": "inhibition at 10 µM", "setting": "CDK8/Cyclin C; CDK8/C, read-out: Inhibition at 10µM (%) Replicate 2", "value": 95.7, "unit": "%"},
      {"measurement": "IC50", "setting": "CDK8/Cyclin C; CDK8/C, n=3 average ± SEM, n=2 average to 2 significant figures, read-out: IC50 (nM) Average*", "value": 24, "unit": "nM"},
      {"measurement": "IC50", "setting": "CDK8/Cyclin C; CDK8/C, read-out: IC50 (nM) Replicate 1", "value": 23, "unit": "nM"},
      {"measurement": "IC50", "setting": "CDK8/Cyclin C; CDK8/C, read-out: IC50 (nM) Replicate 2", "value": 25, "unit": "nM"},
      {"measurement": "IC50", "setting": "CDK8/Cyclin C; [Probe 3] 0.5 µM, n=1, read-out: IC50", "value": 48, "unit": "nM"},
      {"measurement": "inhibition at 10 µM", "setting": "CDK1/Cyclin E1; [3]", "value": 75.2, "unit": "%"},
      {"measurement": "inhibition at 10 µM", "setting": "CDK1/Cyclin E1; [1]", "value": 59.8, "unit": "%"},
      {"measurement": "inhibition at 10 µM", "setting": "CDK1/Cyclin E1; [2]", "value": 90.6, "unit": "%"},
      {"measurement": "inhibition at 10 µM", "setting": "CDK7; [3]", "value": 70.4, "unit": "%"},
      {"measurement": "inhibition at 10 µM", "setting": "CDK7; [1]", "value": 74.2, "unit": "%"},
      {"measurement": "inhibition at 10 µM", "setting": "CDK7; [2]", "value": 66.6, "unit": "%"},
      {"measurement": "IC50", "setting": "CDK7; n=3 average ± SEM, n=2 average to 2 significant figures, read-out: IC50 (nM) Average*", "value": 760, "unit": "nM"},
      {"measurement": "IC50", "setting": "CDK7; read-out: IC50 (nM) Replicate 1", "value": 660, "unit": "nM"},
      {"measurement": "IC50", "setting": "CDK7; read-out: IC50 (nM) Replicate 2", "value": 860, "unit": "nM"},
      {"measurement": "inhibition at 10 µM", "setting": "CDK5/CDK5R1; [3]", "value": 38.1, "unit": "%"},
      {"measurement": "inhibition at 10 µM", "setting": "CDK5/CDK5R1; [1]", "value": 12.7, "unit": "%"},
      {"measurement": "inhibition at 10 µM", "setting": "CDK5/CDK5R1; [2]", "value": 63.5, "unit": "%"}
    ]}
  ]
}
